Here are results for 6 compounds from ChEMBL document CHEMBL3616411, “Discovery of 1-hydroxypyridine-2-thiones as selective histone deacetylase inhibitors and their potential application for treating leukemia” (Bioorg Med Chem Lett, 2015).

Molecules are shown by their SMILES.

For one data set, the system named is THP-1. Description: cells. The settings on record: Homo sapiens. Type of data set: functional, cell-based.
Data set [1] can be described thus: in vitro. As to conditions: human, HEK293 cells (CC50) versus U937 cells (IC50).
Data set [2] is described as follows: in vitro. The settings on record: human, HEK293 cells (CC50) versus THP1 cells (IC50).
A short description of data set [3]: Cytotoxicity against HEK293 cells assessed as reduction in cell viability. It is filed as cell-based. As to conditions: human.
A short description of data set [4]: Cytotoxicity against imatinib resistant human IR-K562 cells assessed as cell viability at 250 nM incubated for 5 days (reference value: 86.7%). As to conditions: IR-K562, 120 h, read-out: Activity. Type of data set: functional.
Data set [5] can be described thus: Cytotoxicity against imatinib resistant human IR-K562 cells assessed as cell viability at 250 nM incubated for 1 day (reference value: 73.9%). Type of data set: functional. The settings on record: IR-K562, 24 h, read-out: Activity.
For the next data set, the system named is U-937. Kind of data set: cells. Type of data set: functional, cell-based. As to conditions: Homo sapiens.
Data set [6] is described as follows: in vitro. As to conditions: human.
The nature of data set [7]: Cytotoxicity against imatinib resistant human IR-K562 cells assessed as cell viability at 250 nM incubated for 3 days (reference value: 79.5%). It is filed as functional. As to conditions: IR-K562, 72 h, read-out: Activity.
The subject of another data set is K562. Kind of data set: cells. Type of data set: functional, cell-based. The settings on record: Homo sapiens.
A short description of data set [8]: in vitro. As to conditions: human, HEK293 cells (CC50) versus K562 cells (IC50).
Data set [9] in a line: Cytotoxicity against imatinib resistant human IR-K562 cells assessed as cell viability at 250 nM incubated for 8 days (reference value: 89.4%). It is filed as functional. The settings on record: IR-K562, 192 h, read-out: Activity.
The nature of the next data set: cells. It is filed as functional, cell-based. As to conditions: Homo sapiens, IR-K562.
The target of data set [10] is T1, Protein deacetylase HDAC6 (Homo sapiens, UniProt Q9UBN7).
T1 sequence (Q9UBN7 whole entry): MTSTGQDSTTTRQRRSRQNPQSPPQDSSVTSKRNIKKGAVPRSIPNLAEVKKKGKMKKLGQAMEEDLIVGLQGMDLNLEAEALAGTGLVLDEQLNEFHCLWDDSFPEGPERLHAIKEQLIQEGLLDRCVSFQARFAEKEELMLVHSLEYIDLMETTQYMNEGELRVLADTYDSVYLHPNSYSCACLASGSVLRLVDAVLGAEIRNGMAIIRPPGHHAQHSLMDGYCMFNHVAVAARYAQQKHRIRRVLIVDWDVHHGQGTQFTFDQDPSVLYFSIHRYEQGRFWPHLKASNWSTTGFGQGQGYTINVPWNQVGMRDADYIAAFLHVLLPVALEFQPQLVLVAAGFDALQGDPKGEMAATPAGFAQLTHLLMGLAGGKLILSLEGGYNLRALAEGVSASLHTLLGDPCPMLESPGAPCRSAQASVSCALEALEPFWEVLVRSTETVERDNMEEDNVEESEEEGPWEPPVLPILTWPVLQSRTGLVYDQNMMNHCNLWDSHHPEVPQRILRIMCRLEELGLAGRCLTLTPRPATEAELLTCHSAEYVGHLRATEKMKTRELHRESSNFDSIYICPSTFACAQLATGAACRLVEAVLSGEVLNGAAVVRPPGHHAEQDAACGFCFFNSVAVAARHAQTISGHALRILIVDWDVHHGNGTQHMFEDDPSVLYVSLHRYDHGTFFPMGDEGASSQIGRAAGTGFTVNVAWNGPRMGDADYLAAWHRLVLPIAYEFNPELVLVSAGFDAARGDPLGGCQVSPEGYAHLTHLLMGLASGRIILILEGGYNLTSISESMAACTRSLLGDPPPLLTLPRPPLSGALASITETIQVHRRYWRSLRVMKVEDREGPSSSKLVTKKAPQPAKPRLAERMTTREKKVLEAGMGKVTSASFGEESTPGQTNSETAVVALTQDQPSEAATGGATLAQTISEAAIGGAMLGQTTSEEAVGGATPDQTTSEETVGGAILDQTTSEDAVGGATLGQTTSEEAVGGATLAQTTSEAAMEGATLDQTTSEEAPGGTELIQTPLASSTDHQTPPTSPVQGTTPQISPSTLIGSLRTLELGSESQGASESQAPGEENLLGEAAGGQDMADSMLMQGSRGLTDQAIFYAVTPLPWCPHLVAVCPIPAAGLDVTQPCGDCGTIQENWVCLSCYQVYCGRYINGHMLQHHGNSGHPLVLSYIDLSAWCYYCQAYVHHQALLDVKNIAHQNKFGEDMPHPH
Description: Inhibition of HDAC6 (unknown origin) using RHKK(Ac) fluorogenic acetylated peptide substrate by fluorometric assay.

A further data set addresses Histone deacetylase 2 (Homo sapiens, UniProt Q92769).
Another data set concerns the target T2, Histone deacetylase 8 (Homo sapiens, UniProt Q9BY41).
T2 sequence (Q9BY41 whole entry): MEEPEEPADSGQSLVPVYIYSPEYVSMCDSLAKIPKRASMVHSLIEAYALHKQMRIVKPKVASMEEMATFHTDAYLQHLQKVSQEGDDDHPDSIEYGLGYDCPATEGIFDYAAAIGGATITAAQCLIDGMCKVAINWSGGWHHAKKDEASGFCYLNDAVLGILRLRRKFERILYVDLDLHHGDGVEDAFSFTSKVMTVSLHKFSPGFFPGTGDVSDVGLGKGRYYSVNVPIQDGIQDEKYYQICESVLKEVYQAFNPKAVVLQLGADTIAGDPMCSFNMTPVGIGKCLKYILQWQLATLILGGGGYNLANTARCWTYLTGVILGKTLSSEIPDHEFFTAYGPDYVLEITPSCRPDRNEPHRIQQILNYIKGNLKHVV
Description: Inhibition of HDAC8 (unknown origin) using RHK(Ac)K(Ac) fluorogenic acetylated peptide substrate by fluorometric assay.

Another data set has as its target Histone deacetylase 4 (Homo sapiens, UniProt P56524). Kind of data set: Inhibition of HDAC4 (unknown origin) using Boc-Lys(trifluoroacetyl)-AMC fluorogenic acetylated peptide substrate by fluorometric assay.
A further data set deals with Histone deacetylase 5 (Homo sapiens, UniProt Q9UQL6). Kind of data set: Inhibition of HDAC5 (unknown origin) using Boc-Lys(trifluoroacetyl)-AMC fluorogenic acetylated peptide substrate by fluorometric assay.
Sequence of Histone deacetylase 5 (Q9UQL6 whole entry): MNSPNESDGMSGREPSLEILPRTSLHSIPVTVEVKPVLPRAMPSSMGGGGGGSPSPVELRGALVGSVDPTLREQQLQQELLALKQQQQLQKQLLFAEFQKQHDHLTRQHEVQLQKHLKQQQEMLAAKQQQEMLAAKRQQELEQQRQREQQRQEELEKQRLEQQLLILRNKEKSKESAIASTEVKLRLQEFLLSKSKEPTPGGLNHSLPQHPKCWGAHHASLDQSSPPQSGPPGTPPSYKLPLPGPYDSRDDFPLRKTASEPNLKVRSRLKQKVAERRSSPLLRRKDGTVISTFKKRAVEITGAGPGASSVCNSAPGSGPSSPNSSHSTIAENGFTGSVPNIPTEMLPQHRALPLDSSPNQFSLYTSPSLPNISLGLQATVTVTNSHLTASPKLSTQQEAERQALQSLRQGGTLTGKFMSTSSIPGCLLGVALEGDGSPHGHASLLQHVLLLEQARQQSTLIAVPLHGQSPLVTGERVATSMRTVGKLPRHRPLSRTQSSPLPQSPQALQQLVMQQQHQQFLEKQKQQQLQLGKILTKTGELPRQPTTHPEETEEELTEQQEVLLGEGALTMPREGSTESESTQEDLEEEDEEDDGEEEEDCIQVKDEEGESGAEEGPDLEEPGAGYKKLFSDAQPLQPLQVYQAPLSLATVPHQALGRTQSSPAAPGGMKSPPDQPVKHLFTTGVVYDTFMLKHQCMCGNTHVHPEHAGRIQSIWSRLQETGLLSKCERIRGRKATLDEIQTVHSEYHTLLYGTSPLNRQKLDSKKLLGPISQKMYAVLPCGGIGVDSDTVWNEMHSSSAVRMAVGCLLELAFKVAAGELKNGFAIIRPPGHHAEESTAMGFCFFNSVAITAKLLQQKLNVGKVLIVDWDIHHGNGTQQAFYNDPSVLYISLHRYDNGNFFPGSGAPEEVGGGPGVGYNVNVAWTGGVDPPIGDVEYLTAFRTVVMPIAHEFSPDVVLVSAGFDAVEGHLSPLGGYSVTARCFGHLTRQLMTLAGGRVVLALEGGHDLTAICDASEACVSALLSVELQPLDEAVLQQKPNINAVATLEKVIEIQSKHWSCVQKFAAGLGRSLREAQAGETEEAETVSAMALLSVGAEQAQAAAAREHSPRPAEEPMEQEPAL
The target of the next data set is Histone deacetylase 1 (Homo sapiens, UniProt Q13547). Description: Inhibition of HDAC1 (unknown origin) using RHKK(Ac) fluorogenic acetylated peptide substrate by fluorometric assay.
Sequence of Histone deacetylase 1 (Q13547 whole entry): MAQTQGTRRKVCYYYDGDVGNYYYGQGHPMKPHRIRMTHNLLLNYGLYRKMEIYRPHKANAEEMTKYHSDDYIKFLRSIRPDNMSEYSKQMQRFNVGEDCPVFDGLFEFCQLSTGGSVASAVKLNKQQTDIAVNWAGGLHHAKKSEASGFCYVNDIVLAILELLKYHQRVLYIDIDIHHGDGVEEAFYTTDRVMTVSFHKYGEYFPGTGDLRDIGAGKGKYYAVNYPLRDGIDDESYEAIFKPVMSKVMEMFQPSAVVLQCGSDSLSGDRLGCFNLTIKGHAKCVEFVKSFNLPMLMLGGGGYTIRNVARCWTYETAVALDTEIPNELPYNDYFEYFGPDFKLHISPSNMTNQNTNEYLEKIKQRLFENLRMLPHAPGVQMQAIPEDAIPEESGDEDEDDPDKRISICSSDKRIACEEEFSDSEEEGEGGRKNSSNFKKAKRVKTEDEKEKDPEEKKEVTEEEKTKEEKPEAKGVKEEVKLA
The target of the next data set is Histone deacetylase 9 (Homo sapiens, UniProt Q9UKV0). Kind of data set: Inhibition of HDAC9 (unknown origin) using Boc-Lys(trifluoroacetyl)-AMC fluorogenic acetylated peptide substrate by fluorometric assay.
Sequence of Histone deacetylase 9 (Q9UKV0 whole entry): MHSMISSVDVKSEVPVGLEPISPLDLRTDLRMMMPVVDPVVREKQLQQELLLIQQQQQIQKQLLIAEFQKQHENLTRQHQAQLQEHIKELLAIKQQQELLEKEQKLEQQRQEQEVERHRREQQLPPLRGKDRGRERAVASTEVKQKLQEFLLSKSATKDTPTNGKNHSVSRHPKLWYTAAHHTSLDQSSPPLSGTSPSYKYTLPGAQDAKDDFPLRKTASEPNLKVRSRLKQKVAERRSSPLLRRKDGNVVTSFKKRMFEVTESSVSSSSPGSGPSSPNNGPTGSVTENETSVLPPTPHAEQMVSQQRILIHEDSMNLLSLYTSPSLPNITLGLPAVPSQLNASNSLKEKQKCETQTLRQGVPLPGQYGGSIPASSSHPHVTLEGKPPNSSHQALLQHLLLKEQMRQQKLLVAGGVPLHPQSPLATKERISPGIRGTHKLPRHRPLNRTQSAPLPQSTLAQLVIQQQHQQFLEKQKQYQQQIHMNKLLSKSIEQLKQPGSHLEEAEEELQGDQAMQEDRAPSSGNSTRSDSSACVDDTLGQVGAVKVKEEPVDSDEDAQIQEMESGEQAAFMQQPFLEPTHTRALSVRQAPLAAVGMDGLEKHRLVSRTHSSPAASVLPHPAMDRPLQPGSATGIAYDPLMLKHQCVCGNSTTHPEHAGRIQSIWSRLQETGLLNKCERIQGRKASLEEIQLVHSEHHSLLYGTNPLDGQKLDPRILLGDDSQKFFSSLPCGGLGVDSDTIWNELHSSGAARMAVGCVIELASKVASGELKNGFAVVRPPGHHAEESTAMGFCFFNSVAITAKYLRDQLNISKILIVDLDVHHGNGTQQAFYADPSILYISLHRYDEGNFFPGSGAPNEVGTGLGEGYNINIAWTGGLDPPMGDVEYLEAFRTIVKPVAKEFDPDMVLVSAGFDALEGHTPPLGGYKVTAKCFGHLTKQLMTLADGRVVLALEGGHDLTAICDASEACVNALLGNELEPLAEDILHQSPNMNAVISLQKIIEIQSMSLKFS

Sequence of Histone deacetylase 4 (P56524 whole entry): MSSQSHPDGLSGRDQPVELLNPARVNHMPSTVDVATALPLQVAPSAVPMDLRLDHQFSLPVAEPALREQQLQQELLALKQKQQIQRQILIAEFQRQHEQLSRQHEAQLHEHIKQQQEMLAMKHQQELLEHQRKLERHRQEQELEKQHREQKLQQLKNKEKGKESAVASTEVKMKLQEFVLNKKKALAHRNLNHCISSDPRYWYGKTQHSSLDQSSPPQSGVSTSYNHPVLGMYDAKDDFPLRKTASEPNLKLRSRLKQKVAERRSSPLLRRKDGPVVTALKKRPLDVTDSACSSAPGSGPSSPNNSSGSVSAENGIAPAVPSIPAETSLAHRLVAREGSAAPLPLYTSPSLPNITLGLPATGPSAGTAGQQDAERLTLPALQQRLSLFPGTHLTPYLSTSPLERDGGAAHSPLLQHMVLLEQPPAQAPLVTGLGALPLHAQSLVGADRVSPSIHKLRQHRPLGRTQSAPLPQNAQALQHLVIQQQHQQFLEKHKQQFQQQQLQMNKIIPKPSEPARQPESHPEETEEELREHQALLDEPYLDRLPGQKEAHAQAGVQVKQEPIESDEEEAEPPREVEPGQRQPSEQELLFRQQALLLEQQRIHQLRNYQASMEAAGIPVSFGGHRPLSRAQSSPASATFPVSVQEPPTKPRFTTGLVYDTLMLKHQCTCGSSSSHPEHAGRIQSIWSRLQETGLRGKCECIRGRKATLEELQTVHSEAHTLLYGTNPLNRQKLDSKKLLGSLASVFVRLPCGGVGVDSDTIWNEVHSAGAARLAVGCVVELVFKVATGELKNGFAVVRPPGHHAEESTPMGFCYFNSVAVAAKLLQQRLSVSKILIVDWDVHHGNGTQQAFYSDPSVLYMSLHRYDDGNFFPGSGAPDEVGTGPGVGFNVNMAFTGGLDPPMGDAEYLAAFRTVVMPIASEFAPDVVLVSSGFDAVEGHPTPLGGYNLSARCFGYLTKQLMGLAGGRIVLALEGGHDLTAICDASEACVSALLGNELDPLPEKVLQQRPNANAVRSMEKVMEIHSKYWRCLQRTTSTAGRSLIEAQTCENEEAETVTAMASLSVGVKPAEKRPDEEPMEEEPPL
Sequence of Histone deacetylase 2 (Q92769 whole entry): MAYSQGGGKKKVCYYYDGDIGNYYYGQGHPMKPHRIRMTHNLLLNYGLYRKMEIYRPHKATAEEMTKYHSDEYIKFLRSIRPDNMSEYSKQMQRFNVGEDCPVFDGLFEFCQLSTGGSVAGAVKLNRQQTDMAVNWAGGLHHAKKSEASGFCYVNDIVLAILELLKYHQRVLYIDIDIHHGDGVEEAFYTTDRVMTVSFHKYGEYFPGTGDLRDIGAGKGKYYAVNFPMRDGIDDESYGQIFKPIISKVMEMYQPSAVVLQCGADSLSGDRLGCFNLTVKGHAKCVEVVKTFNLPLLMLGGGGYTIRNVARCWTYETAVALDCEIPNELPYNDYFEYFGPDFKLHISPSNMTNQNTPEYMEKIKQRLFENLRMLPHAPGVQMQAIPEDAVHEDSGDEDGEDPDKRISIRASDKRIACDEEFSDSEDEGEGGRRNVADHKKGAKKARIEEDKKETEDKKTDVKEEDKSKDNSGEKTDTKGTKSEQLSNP

Broadly, the IC50 is the concentration at which inhibition is half-maximal. Low readings indicate inhibition by little substance, high ones a need for much substance. Usually CC50 stands for the concentration at which the toxic effect on the cells reaches its halfway point. Turning to `Cc1ccc(NC(=O)c2ccc(CN3CCN(C)CC3)cc2)cc1Nc1nccc(-c2cccnc2)n1` [IMATINIB], the IC50 in the data set with THP-1 was found to be 25 µM; with U-937, 19 µM; in the data set with K562 it was 0.06 µM; in “cells”, 1.1 µM. The selectivity ratio in the data set “in vitro [1]” was 0.44; in “in vitro [2]” it was 0.34; in the data set “in vitro [6]”, 7.6; in “in vitro [8]” it was 140. In addition, the CC50 in data set [3] worked out at 8.4 µM. For the same compound, the viability at […] in data set [4] came to 65.1%; in [5], 47%; in data set [7], 58.7%; in data set [9], 71.1%.

For the compound `O=C(CCCCCCC(=O)Nc1ccccc1)NO` [VORINOSTAT], the half-maximal cytotoxic concentration (CC50) in [3] was determined as 100 µM.

Regarding `O=C(O)c1cccc(=S)n1O`, the IC50 in the data set with THP-1 amounted to 25 µM; in data set [10] it was 0.15 µM; on Histone deacetylase 2, 710 µM; at Histone deacetylase 8, 3300 nM; against Histone deacetylase 4, 71 µM; in the data set with U-937, 75 µM. Moreover, the IC50 at Histone deacetylase 5 came to 35 µM; in the data set on K562, 18 µM; against Histone deacetylase 1 it was 43 µM; in the data set “cells”, 52 µM; against Histone deacetylase 9, 47 µM. In addition, the CC50 in [3] was determined as 97 µM.

For the compound `Cc1nc(Nc2ncc(C(=O)Nc3c(C)cccc3Cl)s2)cc(N2CCN(CCO)CC2)n1` [DASATINIB], the IC50 worked out at 6 µM with THP-1, 0.08 µM in the data set on K562 and 1.9 µM in “cells”. Moreover, the selectivity ratio in the data set “in vitro [1]” was under 0.1; in “in vitro [2]” it was 2.6; in the data set “in vitro [6]”, 8.4; in the data set “in vitro [8]”, 200. Also, the CC50 in [3] is 16 µM.

Consider `O=C(N[C@@H](C(=O)O)c1ccccc1)c1cccc(=S)n1O`, for which the half-maximal inhibitory concentration (IC50) in the data set with THP-1 is 6.4 µM; in [10] it was 8.8 µM; at Histone deacetylase 2 it was 95 µM; against Histone deacetylase 8 it was 1200 nM; against Histone deacetylase 4, 64 µM; in the data set with U-937, 57 µM. For the same compound, the half-inhibitory concentration (IC50) is 27 µM on Histone deacetylase 5; 8.7 µM in the data set with K562; 93 µM at Histone deacetylase 1; 24 µM in “cells”; 34 µM at Histone deacetylase 9. The cytotoxic concentration (CC50) in [3] was determined as 76 µM.

For `C[C@@H](NC(=O)c1cccc(=S)n1O)C(=O)O`, the concentration for half-maximal inhibition (IC50) with THP-1 is 2.2 µM; in data set [10], 4.2 µM; against Histone deacetylase 2, 400 µM; on Histone deacetylase 8, 980 nM; against Histone deacetylase 4 it was 100 µM; in the data set on U-937, 25 µM. The IC50 on Histone deacetylase 5 was found to be 37 µM; in the data set on K562 it was 3.7 µM; at Histone deacetylase 1 it was 270 µM; in “cells”, 18 µM; at Histone deacetylase 9, 58 µM.
